According to patent US20120214874A1, “PHARMACEUTICAL FORMULATIONS AND METHODS OF USE” (Nuvo Research Inc., priority 2009, published 2012):

Assay: pH measurement of formulations and panthenol solutions (Experiments A-C, E)
Format: physicochemical
Experimental: Experiment A: AMP (0.0006%) was added to NRI-ANA-14 to replicate the AMP concentration in NRI-ANA-08. After AMP addition, the pH of NRI-ANA-08 was 4.1, and the pH of NRI-ANA-14 (+0.0006% AMP) was 4.2. This supported the hypothesis.
Experiment B: AMP (0.012%) was added to NRI-ANA-14 to replicate the AMP concentration in NRI-ANA-13. After AMP addition, the pH of NRI-ANA-13 was 4.8, and the pH of NRI-ANA-14 (+0.012% AMP) was 4.8. This supported the hypothesis.
Experiment C: A modified NRI-ANA-14 formulation containing 1.3% TEC and citric acid equivalent to 0.7% TEC was prepared. A control NRI-ANA-14 formulation was subjected to a stability study according to the method set forth in Example 19. After six months at 40° C., the pH of the control NRI-ANA-14 formulation was 2.6, while the pH of the modified NRI-ANA-14 formulation was 1.6. This supported the hypothesis.
Experiment E: The pH of 10% aqueous solution of D,L- and D-panthenol were measured. The pH of 10% D,L-panthenol was 6.7, but the pH of 10% D-panthenol was 9.4. This supported the hypothesis.

Substance: 2,4-dihydroxy-N-(3-hydroxypropyl)-3,3-dimethyl-butanamide [D,L-panthenol]
- pH of 10% aqueous solution: 6.7

Substance: (2R)-2,4- dihydroxy-N- (3- hydroxy- propyl)-2,3,3- trimethyl- butanamide [D-panthenol]
- pH of 10% aqueous solution: 9.4
